The subject of one data set is HFD-induced AD mice. Kind of data set: Behavioral tests (Y-maze, NOR, MWM) in HFD-induced AD mice. In kind it is in vivo. From the text:
In experiments with the HFD-induced AD mouse model, a total of 60 Institute of Cancer Research (ICR) male mice aged 4 weeks from Zhejiang Academy of Medical Sciences (Hangzhou, China) were used for animal experiments (permit number: ZJU20230121). The animals were provided free access to a chow diet and water. […] The HFD and normal diet were alternated every two days to maintain freshness. Weekly measurements were taken for water intake, food intake, and body weight. In the eighteenth week, the mice underwent Y-maze and NOR tests. The Morris water maze test was conducted during the nineteenth week. After confirming the successful establishment of the AD model characterized by cognitive impairment, oral administration of treatments commenced. […] Each group had 10 mice.
The Y-maze test is used to evaluate working memory, and the process was referenced in another report. In brief, the Y-maze consists of three black plastic arms (A, B, and C) with the same length (30 cm), width (10 cm), height (15 cm), and 120° relative to adjacent arms. Each mouse is placed facing the wall of arm A and allowed to explore the maze freely for 5 min. The behavior of mice is recorded with a video recorder, and the data are stored in ANY-MAZE software version 6.35 (Stoelting, Chicago, IL, USA). The total number of entries made by the mice into each arm—considered as either whole or half-body entries—is recorded. An alternation is defined as a mouse moving through all three arms without returning to the initial arm on the third visit. Alternation: number of alternations/(number of arm entries − 2) × 100%.
The NOR test is utilized to assess the working memory capabilities of mice. The NOR apparatus consists of an open, black plastic box, two identical objects, and one novel object. The activity of the mice within the open field is captured and recorded using a video recorder, with data subsequently stored in ANY-MAZE software. The test is conducted over a span of two days, incorporating habituation, training, and testing stages. During the habituation phase, the mice are placed in the box devoid of any objects, allowing them to explore freely for a duration of five min. Following a 24 h interval, the NOR test is administered, which consists of both the training and testing phases. In the training phase, each mouse is positioned in the central area of the box, where two identical objects are placed equidistant from the mouse. Each training session lasts for five minutes. After a one-hour break, one of the identical objects is replaced with a new, distinct object, and the exploration duration for each mouse is recorded. Exploration is defined by the time a mouse spends touching or sniffing an object. The exploration times during both the training and testing phases are documented via video recording, and the data are organized within ANY-MAZE software. The object recognition index was defined as follows: (time spent on the new object)/(time spent on the old object + time spent on the new object) × 100%. The data are calculated by ANY-MAZE software.
The MWM test is used to measure spatial memory and long-term memory. The whole MWM equipment includes a circular water tank (diameter 1.5 m, depth 50 cm) with warm water (22 ± 1 °C) 35 cm deep, a platform (diameter 14 cm, immersed 1 cm in water), a camera, and a computer for data analysis. The MWM test is conducted over five 5 days: 4 days for training and 1 day for testing. The pool is divided into four quadrants, and at least three quadrants are tested at a time. In the training stage, the mouse is placed on the wall of one of the four quadrants and allowed to swim and find the platform hidden underwater within 120 s. If the mouse cannot find the platform, the experimenter will guide it and let it stay on the platform for 10 s. The experiment lasts for 4 days. On the fifth day of the test phase, the platform is removed, and each mouse is placed in a similar starting position and allowed to move freely for 90 s. […]

Data set [1] can be described thus: Brain concentration after oral administration in rats (BBB passage). The format is in vivo. The protocol:
In the pharmacokinetic analysis, a total of […] female SD rats aged 8 weeks from Zhejiang Academy of Medical Sciences (Hangzhou, China) (permit number: ZJU20240191) were used. A total of 15 rats were randomly divided into the following groups: (i) control group, (ii) TBG096 (14 mg/kg) oral administration group, and (iii) TBG096 (14 mg/kg) intravenous administration group. TBG096 was administered orally (dissolved in soybean oil) or intravenously (dissolved in Milli-Q water containing 2% Tween 80 and 5% ethanol) at 14 mg/kg after 12 h of fasting. Then, the blood from the posterior ocular venous plexus of rats was taken at 5, 15, 30, 60, 90, 120, 180, and 240 min after administration. […]
The collected blood was placed in a centrifuge tube (containing 20 µL heparin sodium solution) and centrifuged at 3000 rpm for 10 min to obtain a supernatant (plasma). […] The residue was dissolved in 100 µL of mobile phase, vortexed for 0.5 min, and centrifuged at 12,000 rpm for 3 min, and the supernatant was then prepared for HPLC analysis (Supersil Phenyl 5 µm (4.6 × 200 mm), elution with MeCN/H2O containing 0.1% formic acid (plasma samples: 57% MeCN/H2O, brain samples: 56% MeCN/H2O) for 30 min, flow rate: 1 mL/min, sample size: 20 µL, detected at 284 nm) and HR ESI-TOF-MS analysis.

The source of these data is PMC11943016, “TBG096 Ameliorates Memory Deficiency in AD Mouse Model via Promoting Neurogenesis and Regulation of Hsc70/HK2/PKM2/LAMP2A Signaling Pathway” (International Journal of Molecular Sciences, 2025).

For the compound `O=C(SCCCCCCSCCCC(F)(F)F)c1cccc(O)c1O` [TBG096], the “alternation behavior, Y-maze test” value in the data set on HFD-induced AD mice (0.1, 5, and 20 mg/kg, vs HFD-only, 20 mg/kg most pronounced) is recorded as “significantly improved”. The “optimal dose in NOR test” value in the data set on HFD-induced AD mice (HFD-induced AD mice) worked out at 5 mg/kg. For the same compound, the “dosage of optimal therapeutic effect on memory” value with HFD-induced AD mice (HFD-induced AD mice, comparable to Met) turned out to be 20 mg/kg. Further, the “number of arm entries, Y-maze test” value in the data set with HFD-induced AD mice (TBG096 0.1, 5, 20 mg/kg, Met 140 mg/kg, 54 days) is listed as “No significant differences”. For the same compound, in the data set with HFD-induced AD mice (fifth day), the “escape latency, MWM test phase” value is given as “significant reductions”. Moreover, the “escape latency, MWM training phase” value with HFD-induced AD mice (fourth day, Met 140 mg/kg and all doses of TBG096) is “markedly reduced”. In addition, in the data set on HFD-induced AD mice (vs HFD-only group), the “discrimination index, NOR test phase” value is listed as “higher” and the “number of platform crossings, MWM test phase” value is “increased significantly”. The “ability to cross the BBB” value in data set [1] (brain samples 15 min after oral 14 mg/kg, HPLC and HR ESI-TOF-MS) is recorded as “has the ability to cross the BBB”. The same compound returned a concentration at 15 min in data set [1] (female, Sprague-Dawley, rat, brain, 15 min after single oral dose 14 mg/kg, rats) of 81.7 ± 6.81 ng/g.
